Source: patent EP0013067A1, “Bicyclic beta-lactam antibacterial agents, their use in pharmaceutical compositions, processes for their preparation and intermediates for use in such processes” (BEECHAM GROUP PLC, priority 1978, dated 1980)
Read-outs that look alike come from different tables or passages of the source.

What was measured:
Type in all cases: cell-based
[1] = antibacterial activity (general statement, no method given); conditions: prepared and tested by the applicant; no method or organisms given
[2] = test system: Salmonella typhimurium CT10; assay: MIC, DST agar + 10% horse blood; conditions: Salmonella enterica, read-out: MIC Agar
From the text: (§1) The ninimum inhibitory concentrations (MIC) cf this compound required to inhibit the growth of various bacteria are tabulated balow: […]

E. coli ESS = assay: MIC, DST agar + 10% horse blood; conditions: Escherichia coli, inoculum 0.001 ml of an undilute overnight broth culture
From the text: as §1

Escherichia coli JT 39 [3] = assay: MIC, DST agar + 10% horse blood
From the text: as §1

Proteus rettgeri WM16 = assay: MIC, DST agar + 10% horse blood; conditions: Providencia rettgeri
From the text: as §1

Serratia marcescens US20 = assay: MIC, DST agar + 10% horse blood
From the text: as §1

Pseudomonas aeruginosa A [4] = assay: MIC, DST agar + 10% horse blood; conditions: read-out: MIC Agar
From the text: as §1

[5] = test system: Staphylococcus aureus Oxford; assay: MIC, DST agar + 10% horse blood; conditions: read-out: MIC Agar
From the text: as §1

Escherichia coli 0111 [6] = assay: MIC, DST agar + 10% horse blood; conditions: Escherichia coli 0111, inoculum 0.001 ml of an undilute overnight broth culture
From the text: as §1

Proteus mirabilis C977 [7] = assay: MIC, DST agar + 10% horse blood
From the text: as §1

Proteus vulgaris W091 = assay: MIC, DST agar + 10% horse blood
From the text: as §1

[8] = test system: Staphylococcus aureus Russell; assay: MIC, DST agar + 10% horse blood; conditions: read-out: MIC Agar
From the text: as §1

Citrobacter freundii E8 = assay: MIC, DST agar + 10% horse blood
From the text: as §1

Bacillus subtilis A = assay: MIC, DST agar + 10% horse blood; conditions: read-out: MIC Agar
From the text: as §1

Streptococcus faecalis I = assay: MIC, DST agar + 10% horse blood; conditions: Enterococcus faecalis, read-out: MIC Agar
From the text: as §1

Klebsiella aerogenes A [9] = assay: MIC, DST agar + 10% horse blood; conditions: read-out: MIC Agar
From the text: as §1

[10] = test system: Staphylococcus aureus 1517; assay: MIC, DST agar + 10% horse blood
From the text: as §1

Proteus morganii I580 = assay: MIC, DST agar + 10% horse blood; conditions: Morganella morganii
From the text: as §1

[11] = test system: Streptococcus pneumoniae CN33; assay: MIC, DST agar + 10% horse blood
From the text: as §1

[12] = test system: Streptococcus pyogenes CN10; assay: MIC, DST agar + 10% horse blood
From the text: as §1

Escherichia coli JT 39 [13] = assay: MIC, microtitre using Nutrient broth
From the text: as §1

Pseudomonas aeruginosa A [14] = assay: MIC, microtitre using Nutrient broth; conditions: read-out: MIC Broth
From the text: as §1

[15] = test system: Staphylococcus aureus Oxford; assay: MIC, microtitre using Nutrient broth; conditions: read-out: MIC Broth
From the text: as §1

Escherichia coli 0111 [16] = assay: MIC, microtitre using Nutrient broth; conditions: Microtitre using Nutrient broth, inoculum 0.001 ml of an undilute overnight broth culture
From the text: as §1

Proteus mirabilis C977 [17] = assay: MIC, microtitre using Nutrient broth
From the text: as §1

[18] = test system: Staphylococcus aureus Russell; assay: MIC, microtitre using Nutrient broth; conditions: read-out: MIC Broth
From the text: as §1

Klebsiella aerogenes A [19] = assay: MIC, microtitre using Nutrient broth; conditions: read-out: MIC Broth
From the text: as §1

Enterobacter cloacae N1 = assay: MIC, DST agar + 10% horse blood; conditions: Enterobacter cloacae, N1, read-out: MIC Agar
From the text: as §1

Shigella sonnei MB 11967 = assay: MIC, DST agar + 10% horse blood; conditions: MB11967, inoculum 0.001 ml of an undilute overnight broth culture
From the text: as §1

[20] = Staphylococcus aureus Oxford, DST agar + 10% horse blood, inoculum 0.001 ml of an undilute overnight broth culture
[21] = Staphylococcus aureus Russell, DST agar + 10% horse blood, inoculum 0.001 ml of an undilute overnight broth culture
[22] = Bacillus subtilis A, DST agar + 10% horse blood, inoculum 0.001 ml of an undilute overnight broth culture
[23] = Streptococcus pyogenes CN10, DST agar + 10% horse blood, inoculum 0.001 ml of an undilute overnight broth culture, read-out: MIC Agar
[24] = Staphylococcus aureus Oxford, Microtitre using Nutrient broth, inoculum 0.001 ml of an undilute overnight broth culture
[25] = Staphylococcus aureus Russell, Microtitre using Nutrient broth, inoculum 0.001 ml of an undilute overnight broth culture
[26] = Escherichia coli, JT39, read-out: MIC Agar
[27] = Serratia marcescens, US20, read-out: MIC Agar
[28] = Proteus mirabilis, C977, read-out: MIC Agar
[29] = Proteus vulgaris, W091, read-out: MIC Agar
[30] = Citrobacter freundii, E8, read-out: MIC Agar
[31] = Staphylococcus aureus, 1517, read-out: MIC Agar
[32] = Streptococcus pneumoniae, CN33, read-out: MIC Agar
[33] = Streptococcus pyogenes, CN10, read-out: MIC Agar
[34] = Escherichia coli, JT39, read-out: MIC Broth
[35] = Proteus mirabilis, C977, read-out: MIC Broth

| Structure (SMILES) | MIC (E. coli ESS) [µg/mL] | MIC [5, 20] [µg/mL] | MIC (Escherichia coli 0111 [6]) [µg/mL] | MIC [8, 21] [µg/mL] | MIC (Bacillus subtilis A; [22]) [µg/mL] | MIC [12, 23] [µg/mL] | MIC [15, 24] [µg/mL] | MIC (Escherichia coli 0111 [16]) [µg/mL] | MIC [18, 25] [µg/mL] | MIC ([2]; TYPHIMURIUM) [µg/mL] | MIC (Escherichia coli JT 39 [3]; [26]) [µg/mL] | MIC (Proteus rettgeri WM16; WM16, read-out: MIC Agar) [µg/mL] | MIC (Serratia marcescens US20; [27]) [µg/mL] | MIC (Pseudomonas aeruginosa A [4]; Pseudomonas aeruginosa) [µg/mL] | MIC ([5]; Staphylococcus aureus) [µg/mL] | MIC (Proteus mirabilis C977 [7]; [28]) [µg/mL] | MIC (Proteus vulgaris W091; [29]) [µg/mL] | MIC ([8]; Staphylococcus aureus) [µg/mL] | MIC [11, 32] [µg/mL] | MIC [12, 33] [µg/mL] | also measured |
| --- | --- | --- | --- | --- | --- | --- | --- | --- | --- | --- | --- | --- | --- | --- | --- | --- | --- | --- | --- | --- | --- |
| O=C(O)C1=CSC2CC(=O)N12 (stereo not drawn) | – | – | – | – | – | – | – | – | – | – | – | – | – | – | – | – | – | – | – | – | antibacterial activity [1]: somewhat disappointing degree of antibacterial activity |
| CC(=O)NCCOCC1=C(C(=O)O)N2C(=O)CC2S1 (stereo not drawn) [compound 23, Sodium 2-(2-acetamidoethoxy)methylponom-3-carooxylate] | 10 | 2.5 | 25 | 25 | 2.5 | 1 | 4 | 31 | 16 | – | – | – | – | – | – | – | – | – | – | – | MIC ([2]; Salmonella typhimurium CT10, DST agar + 10% horse blood, inoculum 0.001 ml of an undilute overnight broth culture): 25 µg/mL; MIC (Escherichia coli JT 39 [3]; JT39, Escherichia coli JT 39, DST agar + 10% horse blood, inoculum 0.001 ml of an undilute overnight broth culture, read-out: MIC Agar): > 100 µg/mL; MIC (Proteus rettgeri WM16; Proteus rettgeri WM16, DST agar + 10% horse blood, inoculum 0.001 ml of an undilute overnight broth culture, read-out: MIC Agar): > 100 µg/mL; MIC (Serratia marcescens US20; Serratia marcescens US20, DST agar + 10% horse blood, inoculum 0.001 ml of an undilute overnight broth culture, read-out: MIC Agar): 100 µg/mL; MIC (Pseudomonas aeruginosa A [4]; Pseudomonas aeruginosa A, DST agar + 10% horse blood, inoculum 0.001 ml of an undilute overnight broth culture): > 100 µg/mL; MIC (Proteus mirabilis C977 [7]; Proteus mirabilis C977, DST agar + 10% horse blood, inoculum 0.001 ml of an undilute overnight broth culture, read-out: MIC Agar): 25 µg/mL; MIC (Proteus vulgaris W091; Proteus vulgaris W091, DST agar + 10% horse blood, inoculum 0.001 ml of an undilute overnight broth culture, read-out: MIC Agar): > 100 µg/mL; MIC (Citrobacter freundii E8; Citrobacter freundii E8, DST agar + 10% horse blood, inoculum 0.001 ml of an undilute overnight broth culture, read-out: MIC Agar): 25 µg/mL; MIC (Streptococcus faecalis I; Streptococcus faecalis I, DST agar + 10% horse blood, inoculum 0.001 ml of an undilute overnight broth culture): > 100 µg/mL; MIC (Klebsiella aerogenes A [9]; Klebsiella aerogenes A, DST agar + 10% horse blood, inoculum 0.001 ml of an undilute overnight broth culture): 100 µg/mL; MIC ([10]; Staphylococcus aureus 1517, DST agar + 10% horse blood, inoculum 0.001 ml of an undilute overnight broth culture, read-out: MIC Agar): 50 µg/mL; MIC (Proteus morganii I580; Proteus morganii I580, DST agar + 10% horse blood, inoculum 0.001 ml of an undilute overnight broth culture, read-out: MIC Agar): > 100 µg/mL; MIC ([11]; Streptococcus pneumoniae CN33, DST agar + 10% horse blood, inoculum 0.001 ml of an undilute overnight broth culture, read-out: MIC Agar): 0.5 µg/mL; MIC (Escherichia coli JT 39 [13]; JT39, Escherichia coli JT 39, Microtitre using Nutrient broth, inoculum 0.001 ml of an undilute overnight broth culture, read-out: MIC Broth): 250 µg/mL; MIC (Pseudomonas aeruginosa A [14]; Pseudomonas aeruginosa A, Microtitre using Nutrient broth, inoculum 0.001 ml of an undilute overnight broth culture): > 500 µg/mL; MIC (Proteus mirabilis C977 [17]; Proteus mirabilis C977, Microtitre using Nutrient broth, inoculum 0.001 ml of an undilute overnight broth culture, read-out: MIC Broth): 31 µg/mL; MIC (Klebsiella aerogenes A [19]; Klebsiella aerogenes A, Microtitre using Nutrient broth, inoculum 0.001 ml of an undilute overnight broth culture): 62 µg/mL |
| COCOCC1=C(C(=O)[O-])N2C(=O)C[C@H]2S1.[Na+] [compound 25, Sodium 2-methoxymethoxymethylpenem-3-carboxylate] | 2.5 | – | 5 | – | – | – | – | 16 | – | 5 | > 50 | 25 | 25 | > 50 | 2.5 | 12.5 | > 50 | 5 | 0.2 | 0.5 | MIC (Enterobacter cloacae N1): > 50 µg/mL; MIC (Citrobacter freundii E8; [30]): 12.5 µg/mL; MIC (Bacillus subtilis A; Bacillus subtilis): 1.2 µg/mL; MIC (Shigella sonnei MB 11967): 5 µg/mL; MIC (Streptococcus faecalis I): 50 µg/mL; MIC (Klebsiella aerogenes A [9]; Klebsiella aerogenes): 25 µg/mL; MIC [10, 31]: > 50 µg/mL; MIC (Proteus morganii I580; I580, read-out: MIC Agar): > 50 µg/mL; MIC (Escherichia coli JT 39 [13]; [34]): 125 µg/mL; MIC (Pseudomonas aeruginosa A [14]; Pseudomonas aeruginosa): 500 µg/mL; MIC ([15]; Staphylococcus aureus): 2 µg/mL; MIC (Proteus mirabilis C977 [17]; [35]): 16 µg/mL; MIC ([18]; Staphylococcus aureus): 8 µg/mL; MIC (Klebsiella aerogenes A [19]; Klebsiella aerogenes): 16 µg/mL |
| CC(=O)NCOCC1=C(C(=O)[O-])N2C(=O)C[C@H]2S1.[Na+] [compound 29, Sodium 2-acetamidomethoxymethylpenem-3-carboxylate] | 2.5 | – | 5 | – | – | – | – | 16 | – | 5 | > 50 | 50 | 25 | > 50 | 2.5 | 12.5 | > 50 | 12.5 | 0.2 | 0.5 | MIC (Enterobacter cloacae N1): > 50 µg/mL; MIC (Citrobacter freundii E8; [30]): 5 µg/mL; MIC (Bacillus subtilis A; Bacillus subtilis): 1.2 µg/mL; MIC (Shigella sonnei MB 11967): 5 µg/mL; MIC (Streptococcus faecalis I): 50 µg/mL; MIC (Klebsiella aerogenes A [9]; Klebsiella aerogenes): 50 µg/mL; MIC [10, 31]: 50 µg/mL; MIC (Proteus morganii I580; I580, read-out: MIC Agar): > 50 µg/mL; MIC (Escherichia coli JT 39 [13]; [34]): 125 µg/mL; MIC (Pseudomonas aeruginosa A [14]; Pseudomonas aeruginosa): > 500 µg/mL; MIC ([15]; Staphylococcus aureus): 8 µg/mL; MIC (Proteus mirabilis C977 [17]; [35]): 31 µg/mL; MIC ([18]; Staphylococcus aureus): 16 µg/mL; MIC (Klebsiella aerogenes A [19]; Klebsiella aerogenes): 62 µg/mL |
| CCOC(C)OCC1=C(C(=O)[O-])N2C(=O)C[C@H]2S1.[Na+] (stereo partly drawn) [compound 34, Sodium 2-(1-ethoxyethoxy)methylpenem-3-carboxylate] | – | – | – | – | – | – | – | – | – | – | – | – | – | – | 2.5 | – | – | 10 | 1 | 1 | – |
| CNC(=O)OCC1=C(C(=O)O)N2C(=O)CC2S1 (stereo not drawn) [compound 36, Sodium 2-N-methylcarbamoyloxymethylpenem-3-carboxylate] | – | 12.5 | – | 12.5 | 2.5 | 25 | 8 | – | 16 | – | – | – | – | – | – | – | – | – | – | – | – |
